# What was measured:
# sweetness perception = assay: Inherent sweetness assessment using 2-AFC method vs 1.5% sucrose; assay type: in vivo, human; conditions: for % correct: % needed 67%; for x (choosing Sample 1 as sweeter): n 36
# Experimental: Sucrose solutions were prepared by adding sucrose to water to achieve the desired concentrations. Compounds were first prepared as 250-fold concentrated stocks in a 50% ethanol (200 proof), 50% water solution. These concentrated stocks were then diluted in water to achieve a final ethanol concentration of 0.2%. The control solutions were also normalized to 0.2% ethanol.
# Compound 1 was evaluated in an aqueous solution for sweetness perception in a 2-AFC test. This test was a double-blinded, randomized study where taste panelists evaluate a pair of solutions one at a time for sweetness. Panelists were instructed not to eat or drink (except water) for at least one hour before the test. During the test, panelists were instructed to sip each sample, swirl it around their mouth and then expectorate. After tasting each sample in the pair, panelists were instructed to record the sample that is “sweeter” in taste. Panelists cleansed their palates by rinsing with water, eating a cracker and waiting for an interval of about 5 minutes. Each pair was tasted twice. All samples were tasted at ambient temperatures. Compound 1 (at various concentrations) was evaluated in comparison to the control, 1.5% sucrose. The flavor and extract manufacturers association (FEMA) characterizes any compound that has a sweetness intensity greater than that of 1.5% in a water base as inherently sweet.
# Control Sample (Sample 1): 1.5% sucrose in water
# Test Samples (Sample 2): • 10 μg/mL (10 ppm) Compound 1 in 0.2% ethanol in water • 2 μg/mL (2 ppm) Compound 1 in 0.2% ethanol in water • 0.5 μg/mL (500 ppb) Compound 1 in 0.2% ethanol in water
# Eighteen subjects completed two replicates of a 2-AFC test for sweetness. Thirty three responses indicated the Control Sample was sweeter for each of the test samples evaluated. Three responses indicated the Test Sample was sweeter for each of the test samples evaluated. Using a beta binomial distribution, p=0.000 (two-sided alternative).
# [1] = test system: bitter taste of Orange VitaminWater (Stevia Leaf Extract, rebaudioside A); assay: Descriptive analysis (DA) panel taste test, Orange VitaminWater
# [2] = test system: bitter taste of rebaudioside A; assay: Descriptive analysis (DA) panel taste test, aqueous rebaudioside A
# [3] = test system: bitterness of 500 ppm RebA; assay: Discrimination testing with sureness (Latin square 2-AFC) and R-index analysis, aqueous RebA; assay type: in vivo, Humans; conditions: 5 ppm in 500 ppm RebA, Discrim. Sureness, N 34, vs control
# Text: The discrimination testing with sureness extends the simple yes/no task of discrimination test in a signal detection procedure to include a sureness rating scale. The discrimination test principle is based on two alternative forced choice (2-AFC) manner, in this methodology, panelists are presented with multiple samples, in which one sample is a control, and the other sampled are test variants. A blind control is included in the test variants along with a known control. Panelists are asked to first discriminate between the known control and a variant by identifying which the sample is less bitter. Second, panelists rate their sureness of their response (e.g., sure, unsure, or guess).
# To minimize bias and prevent panelist expectation of sample order, a Latin square randomization design is utilized. The samples within a set will be randomized and the sets are randomized via Latin square. The number of presentations is equally distributed. Each of the test samples is evaluated against a negative control sample to calculate R-index score and associated p-value. […] R-index is utilized to indicate the degree of difference between the test and the control sample. […]
# The blocker candidates were evaluated in a “sip and spit” format using this methodology and analysis and were the results of at least 30 observations (e.g., 15 panelists and 2 replications or 10 panelists 3 replications).
# [4] = test system: bitter taste receptor (T2R); conditions: Compound 1 3.2 mM in the absence of rebaudioside A; vs vehicle control
# Experimental: Both the rebaudioside A and Compound 1 solutions were prepared in a standard HEPES buffer solution. Rebaudioside A was evaluated at a concentration of 825 μM and Compound 1 was evaluated at 3.2 mM (in the presence and absence of 825 μM rebaudioside A) and compared to vehicle control (HEPES buffer solution). Cells were incubated with a calcium responsive dye for one hour at 37 C and then exposed to rebaudioside A, Compound 1 (in the presence and absence of 825 μM rebaudioside A) and vehicle control. Change in fluorescence prior to compound addition and after compound addition was monitored for five minutes using a Hamamatsu Functional Drug Screening System (FDSS) 6000. The difference in fluorescence response over vehicle control was calculated using maximal cellular responses for each compound.
# [5] = test system: bitter taste in grape-flavored cough syrup (Robitussin Cough and Cold CF); assay: Cough syrup 2-AFC analysis with 50 ppb and 100 ppb (Example 4); assay type: in vivo, Humans; conditions: for Cmpd. Chosen Overall: chosen as less bitter, n=11
# Experimental: (§1) Compound 1 was screened for a reduction of bitter taste due to a bitter tastant in children's grape flavored cough syrup (Robitussin Cough and Cold CF™, Lot #: R10494, Exp. 07/15). Compound 1 was solubilized in […] (PG), dosed into the cough syrup, and placed in 2.5 mL amounts in sample vials to afford 50 ppb or 100 ppb Compound 1 in the samples. Control samples contained an equal amount of PG to samples containing Compound 1. Testers (n=11) were asked to use a plastic transfer pipette for tasting, rinsing with water between samples and choosing the less bitter sample via the two alternative forced choice (2-AFC) method.
# [6] = test system: bitter taste in grape-flavored cough syrup (Robitussin Cough and Cold CF); assay: Cough syrup 2-AFC analysis (Example 3); assay type: in vivo, Humans; conditions: 0.1 ppm in cough syrup; testers n=7
# Experimental: as §1, with “3” for “2.5”, “vials.” for “vials to afford 50 ppb or 100 ppb Compound 1 in the samples.”, “(n=7)” for “(n=11)”
# [7] = Compound 1 @ 0.5 μg/mL in water vs 1.5% sucrose
# [8] = Compound 1 @ 2 μg/mL in water vs 1.5% sucrose
# [9] = Compound 1 @ 10 μg/mL in water vs 1.5% sucrose
# [10] = Panel A, Orange Vitamin Water Zero + Compound 1 @5 ppm, 15 cm scale
# [11] = Panel B, fully solubilized, Orange VitaminWater (head: 500 ppm Reb-A) + Compound1 @0.25 ppm, 0.2% ethanol
# [12] = Panel A, 500 ppm RebA + Compound 1 @7.5 ppm in water, 15 cm scale
# [13] = Panel B, fully solubilized, 500 ppm Reb-A + Compound 1 @0.3 ppm, aqueous, 0.2% ethanol
structure (smiles),measurement,setting,value
"CN[C@@H](Cc1c[nH]c2ccccc12)C(=O)O [Compound 1, N-methyl-L-tryptophan]",d′,sweetness perception; [7],1.956
same,% correct,sweetness perception; [7],92%
same,x (choosing Sample 1 as sweeter),sweetness perception; [7],33
same,d′,sweetness perception; [8],1.956
same,% correct,sweetness perception; [8],92%
same,x (choosing Sample 1 as sweeter),sweetness perception; [8],33
same,d′,sweetness perception; [9],1.956
same,% correct,sweetness perception; [9],92%
same,x (choosing Sample 1 as sweeter),sweetness perception; [9],33
same,inherent sweetness,"sweetness perception; concentrations up to 10 μg/mL (10 ppm), 0.2% ethanol in water, vs 1.5% sucrose",do not elicit inherent sweetness
same,Bit Aft,[1]; [10],2.94
same,Bitter,[1]; [10],4.97
same,HPB,[1]; [10],6.83
same,Licorice,[1]; [10],2.74
same,Swt Aft,[1]; [10],3.89
same,Swt Linger,[1]; [10],1.99
same,Bitter,[1]; [11],3.9
same,HPB,[1]; [11],5.4
same,Bitter,[2]; [12],5.32
same,Bitter Aft,[2]; [12],3.18
same,HPB,[2]; [12],7.70
same,Licorice,[2]; [12],6.58
same,Sweet Aft,[2]; [12],4.71
same,Sweet Linger,[2]; [12],2.55
same,Bitter,[2]; [13],3.4
same,Bitter Aft,[2]; [13],1.6
same,HPB,[2]; [13],5
same,R-index,[3],63.3%
same,fluorescent response from Compound 1 on its own,[4],not significantly different from vehicle control
same,Chosen if 1st in Pair,[5]; 50 ppb in cough syrup,5/6
same,Chosen if 2nd in Pair,[5]; 50 ppb in cough syrup,2/5
same,Chosen in 1st Pair,[5]; 50 ppb in cough syrup,5/6
same,Chosen in 2nd Pair,[5]; 50 ppb in cough syrup,2/5
same,Cmpd. Chosen Overall,[5]; 50 ppb in cough syrup,7/11
same,Chosen if 1st in Pair,[5]; 100 ppb in cough syrup,4/5
same,Chosen if 2nd in Pair,[5]; 100 ppb in cough syrup,3/6
same,Chosen in 1st Pair,[5]; 100 ppb in cough syrup,3/5
same,Chosen in 2nd Pair,[5]; 100 ppb in cough syrup,4/6
same,Cmpd. Chosen Overall,[5]; 100 ppb in cough syrup,7/11
same,Compound Chosen as Less Bitter,[6],5
same,Control Chosen as Less Bitter,[6],1
same,No Choice Made,[6],1
